Test results: PMC11795524, “Melanin-Binding-Based Discovery of Topically Instilled Carbonic Anhydrase Inhibitors for Targeted Delivery and Prolonged Action in the Eye” (Molecular Pharmaceutics, 2025)
Several values for one entry are separate records, joined by “and”; a condition that tells them apart may be missing. Equal values may be shown once.

Test system: pigmented rabbits (Chinchilla Bastard)
Test: IOP study in pigmented rabbits after single eye drop
Type: in vivo, rabbit
Procedure: Five 3–5 months old albino (New Zealand White, all females) and five 3–6 months old pigmented rabbits (Chinchilla Bastard, 1 male and 4 females) were purchased from Charles River Laboratories, UK and Germany, respectively. Prior to the experiments, the rabbits were habituated to handling, and the baseline values of IOP were measured. During the experiments, rabbits weighed 2.4–4.0 kg.
First, stock solutions of CAIs (250 mg/mL) in dimethyl sulfoxide (Sigma-Aldrich, Germany) were prepared. These stock solutions were diluted with PBS (pH 7.4) to obtain 1 mg/mL (0.1%) or 10 mg/mL (1%) solutions.
The CAI solutions were tested in albino rabbits (eye drops of 0.1, and 0.5 or 1.0%) and in pigmented rabbits (0.5 or 1.0%). The novel CAI concentrations in solutions were determined based on the drug solubility with the aim to load the highest possible drug concentration to the single eye drop.
Baseline IOP of pigmented rabbits was raised with two intravitreal triamcinolone acetonide injections (Triesence 40 mg/mL, Novartis Finland Ltd.) with 1 week interval to each eye. This method[25],[26] may induce ocular hypertension even up to 60 days in rabbits.[25]
The rabbits were anesthetized with 0.4 mg/kg, s.c. medetomidine (Domitor vet 1 mg/mL, Orion Pharma, Espoo, Finland) and 20 mg/kg s.c. ketamine (Ketaminol vet 50 mg/mL, Pfizer Oy Animal Health, Espoo, Finland). Mydriasis was induced with topical tropicamide eyedrops (Oftan Tropicamid 5 mg/mL, Santen Pharmaceutical Co., Ltd., Tampere, Finland) and the ocular surface was anesthetized with oxybuprocaine eye drop (Oftan Obucain 4 mg/mL, Santen Pharmaceutical Co., Ltd., Tampere, Finland). Thereafter, intravitreal injection of triamcinolone acetonide (100 μL) was given with a 31G needle and syringe. After injection, the eyes were moisturized with carbomer gel (Viscotears 2 mg/g, Dr. Gerhard Mann chem.-pharm. Fabrik GmbH, Berlin, Germany) and the anesthesia was antagonized with 1 mg/kg atipamezole s.c. (Antisedan vet 5 mg/mL, Orion Pharma, Espoo, Finland).
After the second injection, IOP was allowed to settle for 10 days before the experiments were performed. […] Induction of ocular hypertension is presented in Appendix Figure 3. The IOP-lowering effects of the molecules were investigated sequentially, each test initiating once baseline IOP levels was attained.
The IOP levels in the rabbits were measured with a tonometer (Tonometer Pro, Icare Finland Ltd.). After baseline IOP measurements, a single eye drop (25 μL) was applied to the left eye, whereas the right eye was not treated. After eye drop instillation, the eyelids were kept open manually for 1 min. The IOP was measured from both eyes of the rabbits at 0.5, 1, 2, 3, 4, 5, 6, 7, and 8 h after eye drop instillation. In the case of the pigmented rabbits, the measurements were continued until 10 h postinstillation, and further until the IOP had returned to the normal baseline.
The CAIs were tested in the same rabbits to minimize interindividual data variation. Washout periods of at least 3 days were used between instillation of different compounds. The experiments started always at 8 a.m. to eliminate bias due to diurnal IOP fluctuation. At each time point, the pressure was measured three times with the same eye, and the average values were calculated and used in data analysis.

In the case of `C/C(=N\Nc1ccc(S(N)(=O)=O)cc1)c1cccnc1` [A01], the “duration of IOP reduction” value (hypertensive pigmented rabbits, single eye drop) is reported as 14 days, the “duration of IOP decrease” value (pigmented rabbits, single eye drop) is reported as 2 weeks and the “ratio (AUCpigm/AUCalbino) of IOP response” value (pigmented vs albino rabbits) is reported as 85 and 85.5.
